Values joined by “and” are separate entries in the source; they are usually repeats but may differ in a detail not shown here. Equal entries are not always repeated.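 Test compounds were applied to cells in 96-well plates for 48 hours at 5 doses. The concentration for 50% growth inhibition is given as GI50. Definition used: TGI = concentration required for complete inhibition of growth.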
What was measured:
Test in all cases: inhibition of tumour cell growth, NCI panel, 48 h
[1] = tested on: MCF7 breast
[2] = tested on: HCC-2998 colon
[3] = tested on: A498 renal
[4] = tested on: UACC-257 melanoma
[5] = tested on: ACHN renal
[6] = tested on: M14 melanoma
[7] = tested on: OVCAR-5 ovarian
[8] = tested on: PC-3 prostate
[9] = tested on: SNB-19 CNS
[10] = tested on: RXF 393 renal

Compound | GI50 [1] [µM] | TGI [1] | GI50 [2] [µM] | TGI [2] | GI50 [3] [µM] | TGI [3] | GI50 [4] | TGI [4] | GI50 [5] [µM] | TGI [5] | GI50 [6] [µM] | TGI [6] [µM] | GI50 [7] [µM] | TGI [7] | GI50 [8] [µM] | TGI [8] [µM] | GI50 [9] [µM] | TGI [9] | GI50 [10] [µM] | TGI [10]
C/C=C(\C)C(=O)O[C@H]1C=CC(=O)O[C@H]1CCC(=O)[C@H](C)O | 7.47 | 21.9 µM | 17.1 | 32.4 µM | 24.1 | 56.1 µM | 22.6 µM | > 57 µM | 11 | 23.4 µM | 14.6 | 32.8 | 22.4 | 50.8 µM | 15.8 | 32 | 25.7 | 83.5 µM | 7.08 | 28.5 µM
COc1cc(-c2oc(=O)ccc2C#Cc2ccccn2)cc(OC)c1OC | 0.798 | > 100 µM | 0.236 | 4.6 µM | 3.81 | > 48.3 µM | 4.12 µM | > 61.8 µM | 11.7 | > 100 µM | 2.74 | > 32.4 | 10.5 | > 100 µM | 2.21 | > 100 | 3.8 | > 76.1 µM | 0.273 | 2.09 µM
CCN(CC)CCC(CNc1ccnc2cc(Cl)ccc12)c1ccc(Cl)cc1 (configuration not stated) | 1.06 | 2.32 µM | 0.642 | 2.03 µM | 1.21 | 2.76 µM | 1.02 µM | 2.37 µM | 0.467 | 1.78 µM | 0.211 | 0.47 | 3.01 | 11.2 µM | 3.28 | 17.7 | 1.98 | 5.78 µM | 1.04 | 2.32 µM
N#Cc1c(NC(=O)NCc2ccccc2)sc2c1CCCCC2 | 0.353 | > 100 µM | 1.77 | > 28.5 µM | 0.218 | 1.1 µM | 1.5 µM | > 100 µM | 0.629 | > 100 µM | 0.415 | > 100 | 2.05 | > 100 µM | 0.488 | > 100 | 0.588 | > 100 µM | 0.352 | 2.38 µM
COc1cccc(C2CC(C)(O)Oc3cc4c(cc32)OCO4)c1O (configuration not stated) |  | > 66.5 µM |  | 51.2 µM |  | > 100 µM |  | > 100 µM |  | > 100 µM |  | > 65.8 |  | > 95.7 µM |  | > 100 |  | > 100 µM |  | > 79.8 µM
CCOC(=O)C1=CN(C)C=C(C(=O)OCC)C1c1cc(Br)c(OCC)c(OC)c1 | 32 | > 100 µM | > 100 | > 100 µM | 4.99 | 94.9 µM | > 100 µM | > 100 µM | > 100 | > 100 µM | > 100 | > 100 | > 100 | > 100 µM | 8.29 | > 100 | > 100 | > 100 µM | 8.74 | > 100 µM
CC1(C)N=C(N)N=C(N)N1c1ccc(CCCCc2ccc(Cl)cc2S(=O)(=O)F)c(Cl)c1 | 0.327 | 9.49 µM | 1.15 | 21.2 µM | 3.19 | 18.9 µM | 0.808 µM | 17 µM | 2.62 | 17.6 µM | 0.421 | 17.8 | 0.666 | 22.8 µM | 0.323 | 16.7 | 0.76 | 21.3 µM | 1.26 | 20.4 µM
NC(=O)/C=C/C(=O)c1c(Cl)cccc1Cl | 0.444 | 1.79 µM | 1.51 | 2.88 µM | 1.44 | 2.74 µM | 1.38 µM | 2.68 µM | 0.323 | 0.853 µM | 1.45 | 2.76 | 1.74 | 3.41 µM | 1.46 | 2.81 | 1.75 | 3.38 µM | 0.601 | 1.4 µM
N#Cc1c(N)nc(N2CCOCC2)c(C#N)c1-c1ccncc1 | 34.5 | > 100 µM | 13.3 | 64.3 µM | 18.6 | 66.1 µM | 46.6 µM | > 100 µM | 40.7 | > 100 µM | > 100 | > 100 | 27 | > 100 µM | 32 | > 100 | > 100 | > 100 µM | > 100 | > 100 µM
Cc1ccc(SC2c3ccc(C)cc3Oc3nc(N)c(C#N)c(N)c32)cc1 (configuration not stated) | 1.94 | 4.74 µM | 1.8 | 3.46 µM | 2.72 | 7.33 µM | 1.8 µM | 3.22 µM | 1.63 | 2.99 µM | 1.77 | 3.49 | 1.76 | 3.45 µM | 1.85 | 3.74 | 1.86 | 3.71 µM | 1.81 | 3.28 µM
COc1cccc(F)c1C(=O)c1cnc(NC2CCN(S(C)(=O)=O)CC2)nc1N | 0.326 | > 25 µM | 4.75 | > 25 µM | 3.58 | 8.72 µM | 3.97 µM | 15.3 µM | 2.16 | > 25 µM | 5.33 | > 25 | 3.59 | > 25 µM | 0.984 | 12.3 | 3.46 | > 25 µM | 1.88 | 6.19 µM
Cc1cc(Cl)cc(OCCn2cc(F)cn2)c1-c1nc(N)nc2c1CN(C(=O)NCC(C)(F)F)C2 | 0.0339 | > 100 µM | 0.315 | > 100 µM | 0.261 | > 100 µM | 0.142 µM | > 100 µM | 0.184 | > 100 µM | 0.0848 | > 100 | 2.66 | > 100 µM | 0.0924 | > 100 | 0.477 | > 100 µM |  | > 100 µM
COc1cc(OCc2cccc(-c3ccc(C(O)c4nccs4)cc3)c2C)cc(OC)c1C=O (configuration not stated) | 1.69 | 4.81 µM | 2.28 | 7.08 µM | 0.103 | 0.238 µM | 0.842 µM | 5.11 µM | 1.72 | 6.68 µM | 2.55 | 7.61 | 0.929 | 5.54 µM | 2.74 | 11.2 | 3.16 | 13.4 µM | 2.22 | 6.93 µM
O=C(Nc1ccc2ncccc2c1)Nc1ccc2ncccc2c1 |  | > 100 µM |  | > 100 µM |  | > 100 µM |  | > 100 µM |  | > 100 µM |  | > 100 |  | > 100 µM |  | > 100 |  | > 100 µM |  | > 100 µM
CCOC(=O)c1ccc(NC(=O)Oc2ccc3c(C)cc(=O)oc3c2)cc1 |  | 88 µM |  | 51.1 µM |  | > 100 µM |  | > 100 µM |  | > 100 µM |  | > 100 |  | > 100 µM |  | > 100 |  | > 100 µM |  | > 100 µM
COc1cccc(CC(C)=C(c2ccc(OCCN(C)C)cc2)c2ccc(OCCN(C)C)cc2)c1 | 0.926 | 3.85 µM | 0.895 | 4.92 µM | 4.79 | 9.63 µM | 4.06 µM | 8.8 µM | 1.04 | 3.35 µM | 0.612 | 1.2 | 3.24 | 7.35 µM | 1.95 | 6.82 | 4.38 | 8.99 µM | 0.779 | 4.44 µM
COc1cc(C(=O)N2CCN(C=O)C2=S)cc(OC)c1OC | 5.49 | 24.6 µM | 19.8 | 38.7 µM | 20.5 | 37.6 µM | 19.9 µM | 45.4 µM | 20.1 | 44.1 µM | 20.6 | 41.6 | 48.5 | > 100 µM | 22.2 | 58.2 | 28.5 | 70.4 µM | 16.1 | 32.4 µM
c1ccc(-c2nnc(-c3ccccn3)s2)nc1 | 0.788 | > 100 µM | > 100 | > 100 µM | > 100 | > 100 µM | > 100 µM | > 100 µM | > 100 | > 100 µM | > 100 | > 100 | > 100 | > 100 µM | > 100 | > 100 | > 100 | > 100 µM | > 100 | > 100 µM
COC(=O)c1ccc2c(c1)nc(NC(=O)c1ccccc1)n2CCCc1ccccc1 | 1.78 | > 100 µM | 30.6 | > 100 µM | 16 | > 100 µM | 6.85 µM | > 100 µM | 3.75 | > 100 µM | 2.28 | > 100 | 22.6 | > 100 µM | 4.07 | > 100 | 4.25 | > 100 µM | 16.3 | > 100 µM
COC(=O)C[C@](O)(CCCC(C)(C)O)C(=O)O[C@@H]1C(OC)=C[C@]23CCCN2CCc2cc4c(cc2[C@H]13)OCO4 | < 0.01 | 0.377 µM and 0.0666 µM | 0.0137 | 0.246 µM and 0.0428 µM | 0.0173 | 0.146 µM and 0.0396 µM | 0.205 µM and 0.0232 µM | 0.839 µM and 0.0881 µM | 0.0407 | 4.64 µM and 0.541 µM | 0.0228 |  | 0.0489 | 2.93 µM and 0.556 µM | 0.0288 |  | 0.0214 | 1.29 µM and 1.39 µM | 0.0217 | 0.503 µM and 0.107 µM

Source: PubChem BioAssay (NCI)
